Tests used:
Rv1636 [1] = target: T1, Rv1636 (Mycobacterium tuberculosis, UniProt P9WFC9); experiment: isothermal titration calorimetry (VP-ITC), one-site model; format: binding; details: read-out: Ka1 (converted)
From the text: isothermal titration calorimetry (VP-ITC), one-site model on Rv1636

Rv1636 [2] = target: T1, Rv1636; experiment: malachite green ATPase inhibition assay; format: biochemical; details: ATP as substrate; TMD buffer pH 8.0, 10 mM MgCl2
[3] = test system: Nc1ncnc2c1ncn2[C@@H]1O[C@H](COP(=O)(O)OP(=O)(O)OP(=O)(O)O)[C@@H](O)[C@H]1O; experiment: purified protein; details: 50 mM Tris pH 8.0, 10 mM MgCl2, 1 mM DTT, 0-80 µM ATP, 5 µM Rv1636, 1 h

T1 sequence (P9WFC9 whole entry, looked up): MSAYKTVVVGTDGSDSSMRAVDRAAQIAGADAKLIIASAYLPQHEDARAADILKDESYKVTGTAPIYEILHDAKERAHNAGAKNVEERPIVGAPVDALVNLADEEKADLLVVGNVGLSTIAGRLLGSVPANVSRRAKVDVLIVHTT

| Compound | Kd (Rv1636 [1]) [µM] | ATPase activity (Rv1636 [2]) | Km [3] [µM] | kcat [3] [s⁻¹] |
| --- | --- | --- | --- | --- |
| CC1(C)CC[C@]2(C)CC[C@]3(C)C(=CC[C@@H]4[C@@]5(C)CC[C@H](O)C(C)(C)[C@@H]5CC[C@]43C)[C@@H]2C1 [β-Amyrin] | 17.8 | in the presence of an increasing concentration of β-Amyrin, the result showed a consistent reduction | – | – |
| Rv1636 (Mycobacterium tuberculosis H37Rv) | – | – | 5.187 ± 0.281 | 0.000883 ± 1.7e-05 |

Reference: paper PMC9405466, “Mechanistic Insight into the Enzymatic Inhibition of β-Amyrin against Mycobacterial Rv1636: In Silico and In Vitro Approaches” (Biology, 2022)
